Columns and labels:
recombinant human PKM2 = target: T1, recombinant human PKM2 (Homo sapiens, UniProt P14618); test: Human PKM2 activation assay (Kinase-Glo Plus luminescent detection of generated ATP); assay type: biochemical; conditions: for Emax: percentage activation normalised to DMSO vehicle (LOW) and 5 μM TEPP-46 (HIGH), read-out: hPKM2 Emax; for EC50: recombinant human PKM2 activation, 4-parameter logistic fit, read-out: hPKM2 EC50
T1 construct: His (N); purchased R&D Systems
Procedure, shortened: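 Luminescent ATP detection (Kinase-Glo Plus, 15 min, 26 °C) followed a 60 min, 26 °C shaken reaction of compound with […] His-tagged human PKM2, PEP and ADP in imidazole/KCl/MgCl2 buffer with Tween20 and BSA, pH 7.2.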

recombinant human PKLR = target: T2, recombinant human PKLR (Homo sapiens, UniProt P30613); test: Human PKLR activation assay (Kinase-Glo Plus luminescent detection of generated ATP); assay type: biochemical; conditions: for EC50: activation of recombinant human PKLR, 4-parameter logistic fit, read-out: hPKLR EC50; for Emax: percentage activation normalised to DMSO vehicle (LOW) and 5 μM TEPP-46 (HIGH) controls, read-out: hPKLR Emax (%)
T2 construct: His (N); purchased R&D Systems
T2 sequence (P30613 whole entry): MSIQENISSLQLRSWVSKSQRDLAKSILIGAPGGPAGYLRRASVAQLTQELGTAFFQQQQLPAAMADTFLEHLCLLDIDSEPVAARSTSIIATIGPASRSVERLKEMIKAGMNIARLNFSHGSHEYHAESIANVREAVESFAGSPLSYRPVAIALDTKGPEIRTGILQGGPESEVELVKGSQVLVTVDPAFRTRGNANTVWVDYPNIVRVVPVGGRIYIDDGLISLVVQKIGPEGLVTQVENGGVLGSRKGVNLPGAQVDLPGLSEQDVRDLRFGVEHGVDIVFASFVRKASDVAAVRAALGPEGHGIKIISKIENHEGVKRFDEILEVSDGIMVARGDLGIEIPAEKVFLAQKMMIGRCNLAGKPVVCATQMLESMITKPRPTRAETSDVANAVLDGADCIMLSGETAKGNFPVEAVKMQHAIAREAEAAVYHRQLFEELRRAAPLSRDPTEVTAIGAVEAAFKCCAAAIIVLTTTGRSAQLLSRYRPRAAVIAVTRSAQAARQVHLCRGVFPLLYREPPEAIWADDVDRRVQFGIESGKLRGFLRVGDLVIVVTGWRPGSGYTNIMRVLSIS
Description: Compound activation of recombinant human PKLR pyruvate kinase activity was determined by biochemical assay. N-terminal His-tagged enzyme was sourced from R&D Systems and its substrates phosphoenolpyruvate (PEP) and ADP from Sigma-Aldrich and 2Bscientific Ltd, respectively. The Kinase-Glo® Plus luminescence assay was from Promega. All other reagents were from Sigma-Aldrich. Test Compounds were prepared as 10 mM DMSO stocks and dilution series prepared in DMSO for direct dilution into Assay Buffer comprising 50 mM imidazole, 50 mM KCl, 7 mM MgCl2, 0.01% Tween20, 0.05% BSA (pH 7.2).
Human PKLR was diluted into Assay Buffer to a final concentration of 5 pM. Enzyme-Assay Buffer mix was dispensed into 384-well shallow-well white-walled plates and Test Compounds added by acoustic dispense (Echo®, Labcyte Inc).
After 60 minutes' incubation on an orbital shaker (300 rpm, 26° C.), enzyme activity was quantified by the luminescent detection of generated ATP. Kinase-Glo® Plus reagent was added to each well and the plates incubated for a further 15 minutes on an orbital shaker in the dark (300 rpm, 26° C.) before luminescence measurement on a plate reader (PHERAstar® FSX, BMG Labtech).
Percentage activation was calculated by normalising […] signals to plate LOW (DMSO vehicle) and HIGH (5 μM TEPP-46) controls. EC50 and Emax values were determined from 4-parameter logistic fits of compound concentration-response curves.

T1 sequence (P14618 2-531 limits assumed): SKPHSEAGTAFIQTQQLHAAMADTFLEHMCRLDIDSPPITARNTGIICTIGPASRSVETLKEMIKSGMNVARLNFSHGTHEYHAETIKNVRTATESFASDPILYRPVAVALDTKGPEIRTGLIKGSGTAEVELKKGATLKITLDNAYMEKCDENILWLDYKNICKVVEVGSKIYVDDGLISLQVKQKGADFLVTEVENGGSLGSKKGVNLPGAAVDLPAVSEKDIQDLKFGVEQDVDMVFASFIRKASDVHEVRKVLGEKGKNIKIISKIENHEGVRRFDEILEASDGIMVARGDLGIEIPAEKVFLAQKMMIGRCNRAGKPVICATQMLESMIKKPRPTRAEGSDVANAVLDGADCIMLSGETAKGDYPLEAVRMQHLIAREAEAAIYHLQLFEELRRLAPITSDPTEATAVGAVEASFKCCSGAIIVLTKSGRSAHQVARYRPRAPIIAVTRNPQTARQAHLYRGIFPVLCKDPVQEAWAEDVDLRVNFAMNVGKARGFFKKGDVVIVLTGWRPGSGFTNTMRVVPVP

SMILES | Emax (recombinant human PKM2) [%] | EC50 (recombinant human PKM2) [nM] | EC50 (recombinant human PKLR) [nM] | Emax (recombinant human PKLR) [%]
COc1ccc([S@@](=N)(=O)c2ccc3c(=O)n(Cc4ccc(OC)nc4)ncc3c2)cc1 (single isomer, unassigned) [Example 138] | 91.2 | 85.6 | 14 | 133
O=c1c2ccc(S(=O)(=O)c3cc[nH]n3)cc2cnn1Cc1cccc(C2CC2)n1 [Example 302] | 104 | 119 |  | 
Cc1nc(Cn2ncc3cc(S(=O)(=O)c4cc[nH]n4)ccc3c2=O)ccc1F [Example 303] | 118 | 88.3 |  | 
O=c1c2ccc(S(=O)(=O)c3cnn(C(F)F)c3)cc2cnn1Cc1cc[nH]n1 [Example 305] | 99.9 |  |  | 
Cn1ccc(S(=O)(=O)c2ccc3c(=O)n(Cc4cc[nH]n4)ncc3c2)n1 [Example 306] | 104 | 241 |  | 
O=c1c2ccc(S(=O)(=O)c3cnn(CCO)c3)cc2cnn1Cc1cccc(C2CC2)n1 [Example 307] | 94.6 | 72.8 |  | 
Cn1cc(Cl)c(Cn2ncc3cc(S(=O)(=O)c4cn[nH]c4)ccc3c2=O)n1 [Example 308] | 95.5 | 145 |  | 
Cc1cc(Cn2ncc3cc(S(=O)(=O)c4cn[nH]c4)ccc3c2=O)nn1C [Example 310] | 107 | 153 |  | 
COc1ccc(Cn2ncc3cc(S(=O)(=O)c4cnn(CCO)c4)ccc3c2=O)nc1 [Example 311] | 105 | 238 |  | 
Cc1cc(Cn2ncc3cc(S(=O)(=O)c4cnn(C)c4)ccc3c2=O)n[nH]1 [Example 312] | 102 | 215 |  | 
Cc1c[nH]nc1Cn1ncc2cc(S(=O)(=O)c3cnn(C)c3)ccc2c1=O [Example 313] | 92.3 | 196 |  | 
Cc1cc(Cn2ncc3cc(S(=O)(=O)c4cnn(C(F)F)c4)ccc3c2=O)n[nH]1 [Example 315] | 108 | 241 |  | 
Cc1cccc(Cn2ncc3cc(S(=O)(=O)c4n[nH]cc4F)ccc3c2=O)n1 [Example 316] | 110 | 200 |  | 
Cn1cc(S(=O)(=O)c2ccc3c(=O)n(Cc4cc(Cl)[nH]n4)ncc3c2)cn1 [Example 317] | 109 | 169 |  | 
Cc1cccc(Cn2ncc3cc(S(=O)(=O)c4c[nH]nc4Cl)ccc3c2=O)n1 [Example 318] | 95.2 | 185 |  | 
Cc1cccc(Cn2ncc3cc(S(=O)(=O)c4n[nH]cc4Cl)ccc3c2=O)n1 [Example 319] | 102 | 157 |  | 
Cn1cc(S(=O)(=O)c2ccc3c(=O)n(Cc4cc(F)[nH]n4)ncc3c2)cn1 [Example 322] | 104 | 231 |  | 
COc1ccc(Cn2ncc3cc(S(=O)(=O)c4cc[nH]n4)ccc3c2=O)nc1 [Example 325] | 111 | 151 |  | 
COc1ccc(F)c(Cn2ncc3cc(S(=O)(=O)c4cn[nH]c4)ccc3c2=O)n1 [Example 326] | 106 | 174 |  | 

SMILES | Emax (recombinant human PKM2) [%] | EC50 (recombinant human PKM2) [nM] | EC50 (recombinant human PKLR) [nM] | Emax (recombinant human PKLR) [%]
O=c1c2ccc(S(=O)(=O)c3cc[nH]n3)cc2cnn1Cc1ccn(C(F)F)n1 [Example 328] | 91.5 | 162 |  | 
COc1ccc(F)c(Cn2ncc3cc(S(=O)(=O)c4cc[nH]n4)ccc3c2=O)n1 [Example 329] | 98.5 | 232 |  | 
Cc1cc(Cn2ncc3cc(S(=O)(=O)c4cnn(C)c4)ncc3c2=O)n[nH]1 [Example 331] | 93.3 | 167 |  | 
Cc1[nH]nc(Cn2ncc3cc(S(=O)(=O)c4cc[nH]n4)ccc3c2=O)c1Cl [Example 332] |  | 42.9 |  | 
Cc1[nH]nc(Cn2ncc3cc(S(=O)(=O)c4ccn(C)n4)ccc3c2=O)c1Cl [Example 337] | 95.9 | 85.5 |  | 
O=c1c2ccc(S(=O)(=O)c3cc[nH]n3)cc2cnn1Cc1ccn(C2CC2)n1 [Example 339] | 110 | 67.8 |  | 
N=S(=O)(c1cn[nH]c1)c1ccc2c(=O)n(Cc3ccc4c(n3)CCO4)ncc2c1 (stereo not shown) [Example 341] | 107 | 109 |  | 
Cc1nc(Cn2ncc3cc(S(=O)(=O)c4cn[nH]c4)ccc3c2=O)c(F)cc1F [Example 342] | 104 | 84.4 |  | 
Cc1cc(Cn2ncc3cc(S(=O)(=O)c4cnn(C(F)F)c4)ncc3c2=O)n[nH]1 [Example 343] | 98.2 | 97.6 |  | 
Cc1[nH]nc(Cn2ncc3cc(S(=O)(=O)c4cnn(C)c4)ccc3c2=O)c1C [Example 348] | 94.3 | 51.6 |  | 
Cc1[nH]nc(Cn2ncc3cc(S(=O)(=O)c4cnn(C(F)F)c4)ccc3c2=O)c1Cl [Example 349] | 92.5 | 45.3 |  | 
COC(C)c1nc(S(=O)(=O)c2ccc3c(=O)n(Cc4cc[nH]n4)ncc3c2)cs1 (stereo not shown) [Example 351] | 103 | 93.9 |  | 
COC(C)c1nc(S(=O)(=O)c2ccc3c(=O)n(Cc4nc(C)c(C)cc4F)ncc3c2)cs1 (stereo not shown) [Example 353] | 105 | 98.8 |  | 
COC(C)c1nc(S(=O)(=O)c2ccc3c(=O)n(Cc4cc5n(n4)CCO5)ncc3c2)cs1 (stereo not shown) [Example 356] | 95.5 | 53 |  | 
Cc1nc(S(=O)(=O)c2ccc3c(=O)n(Cc4cc5n(n4)CCO5)ncc3c2)cs1 [Example 357] | 100 | 77.1 |  | 
Cc1cc(Cn2ncc3cc(S(=O)(=O)c4csc(C)n4)ccc3c2=O)n[nH]1 [Example 358] | 98.4 | 77 |  | 
COCCn1ccc(S(=O)(=O)c2ccc3c(=O)n(Cc4ccc5c(n4)CCO5)ncc3c2)n1 [Example 360] | 113 | 71.4 |  | 
O=c1c2ccc(S(=O)(=O)c3cnn(CC(F)(F)F)c3)cc2cnn1Cc1cc[nH]n1 [Example 361] | 93.2 | 79.4 |  | 

Results, then the compound that gave them:

Emax (recombinant human PKM2) [%] | EC50 (recombinant human PKM2) [nM] | EC50 (recombinant human PKLR) [nM] | Emax (recombinant human PKLR) [%] | SMILES
80.8 | 34.5 | 7.2 | 132 | COc1ccc(Cn2ncc3cc([S@@](=N)(=O)c4ccc5c(c4)CCO5)ccc3c2=O)cn1 (single isomer, unassigned) [Example 128]
108 | 20.6 |  |  | Cn1cc(S(=O)(=O)c2ccc3c(=O)n(Cc4ccc5occc5n4)ncc3c2)cn1 [Example 330]
101 | 31.8 |  |  | COCCn1cc(S(=O)(=O)c2ccc3c(=O)n(Cc4ccc5c(n4)CCO5)ncc3c2)cn1 [Example 333]
96.8 | 23.3 |  |  | O=c1c2ccc(S(=O)(=O)c3cnn(C4COC4)c3)cc2cnn1Cc1ccc2c(n1)CCO2 [Example 334]
113 | 14.2 |  |  | O=c1c2ccc(S(=O)(=O)c3cc[nH]n3)cc2cnn1Cc1ccc2occc2n1 [Example 335]
106 | 28.5 |  |  | Cn1ccc(S(=O)(=O)c2ccc3c(=O)n(Cc4ccc5occc5n4)ncc3c2)n1 [Example 336]
96.4 | 24.4 |  |  | Cc1c(Cl)c(Cn2ncc3cc(S(=O)(=O)c4cn[nH]c4)ccc3c2=O)nn1C [Example 338]
111 | 29.3 |  |  | O=c1c2ccc(S(=O)(=O)c3cnn(C(F)F)c3)cc2cnn1Cc1ccc2c(n1)CCO2 [Example 340]
107 | 31.5 |  |  | O=c1c2ccc(S(=O)(=O)c3cn[nH]c3)cc2cnn1Cc1ccc2c(n1)OCCO2 [Example 344]
113 | 11.4 |  |  | Cc1cc2nc(Cn3ncc4cc(S(=O)(=O)c5cn[nH]c5)ccc4c3=O)ccc2o1 [Example 345]
96.7 | 42.3 |  |  | O=c1c2ccc(S(=O)(=O)c3csc(C4CC4)n3)cc2cnn1Cc1cc[nH]n1 [Example 346]
104 | 24.5 |  |  | O=c1c2cnc(S(=O)(=O)c3cn[nH]c3)cc2cnn1Cc1ccc2c(n1)CCO2 [Example 347]
94.9 | 36.7 |  |  | COC(C)c1nc(S(=O)(=O)c2ccc3c(=O)n(Cc4ccc5c(n4)CCO5)ncc3c2)cs1 (stereo not shown) [Example 350]
117 | 27.5 |  |  | COC(C)c1nc(S(=O)(=O)c2ccc3c(=O)n(Cc4ccc5occc5n4)ncc3c2)cs1 (stereo not shown) [Example 352]
106 | 23.3 |  |  | O=c1c2ccc(S(=O)(=O)c3cn[nH]c3)cc2cnn1Cc1ccc2c(n1)NCCO2 [Example 354]
101 | 39.4 |  |  | Cc1c(Cn2ncc3cc(S(=O)(=O)c4cnn(C)c4)ccc3c2=O)nn2c1OCC2 [Example 355]
112 | 24.2 |  |  | Cc1cc(S(=O)(=O)c2ccc3c(=O)n(Cc4ccc5c(n4)CCO5)ncc3c2)n[nH]1 [Example 359]
105 | 42 |  |  | Cc1c(Cn2ncc3cc(S(=O)(=O)c4cn[nH]c4)ccc3c2=O)nn2c1OCC2 [Example 362]
